Entries after “also recorded” stand apart in the source; their conditions may differ.
Legend:
[1] = literature; cited from earlier work
[2] = system: human striatal stem cells (line 161); experiment: Neuronal differentiation of human striatal stem cells (β tubulin III neurons, total cells); type: cell-based; details: 9 days
Method: Expansion and differentiation of striatal human stem cells. Human stem cells were provided from ReNeuron Inc. (U.K.). Striatum was obtained after 6 to 12 weeks of gestation from routine legal abortion. Cell line was provided by ReNeuron at passage 16. The stem cells were expanded in untreated 25 cm^2 tissue culture flasks (Nunc, USA) in the presence of 20 ng/ml and 10 ng/ml of human recombinant EGF and bFGF respectively, in NSA basal serum-free medium (Euroclone, U.K). Fresh medium and growth factors were added every 3 days. In these conditions stem cells were growing as floating neurospheres. After 4 weeks, the neurospheres were harvested, treated with a mild papain treatment in HBSS and dissociated into a single cell suspension. Cells were counted and viability was estimated by trypan blue exclusion method. Cells were differentiated by growth factors removal. The cells were plated in NSA medium at 20,000 cells/well on LabTek permanox culture slides of 8 wells precoated with laminin (1 μg/ml). Cells were treated with valproate and BDNF for 9 days at 37° C. and a saturated humidified atmosphere of 5% CO2, 1% O2 and 94% N2. Fresh medium and re-treatment with factors was performed every 3 days.
(§1) Drug treatment. For immunofluorescence and Western analysis, cells were treated daily with either 0.5 mM of valproate (Sigma), 10 ng/ml of BDNF (R & D Systems), 20 ng/ml of NT-3 (R & D Systems), 1 nM 9cis retinoic acid (Sigma) or a dilution of NCM for 6 or 7 days. In some experiments valproate was also added with NCM and/or 9cis RA for 7 days. For human stem cell experiments, valproate (0.5 mM) or BDNF (25 ng/ml) was added for 9 days. For neurite outgrowth experiments, cells were treated for 1 day with 0.5 mM valproate or 50 ng/ml of BDNF. Where applicable, medium was changed every 2 days. After about 5–10 days, preferably on day 6 (i.e., after 6 days of drug exposure) the cells were fixed with a 4% solution of para-formaldehyde (PFA) in PBS, prepared as follows:
Immunofluorescent staining and visualization. Cells were plated at 20,000 cells/well in poly-L-ornithine/fibronectin (1 mg/ml) coated 24-well plates. […]
For counting, three to five different fields of interest at magnification 10× or 20× were chosen randomly. For immunofluorescence, 3 different black and white pictures were taken by field of interest with a digital camera CoolSnap Fx (Princeton) corresponding to the exposure of Cy2, Cy3 and Hoechst fluorescence. […] The percentage of neurons, astrocytes and GABAergic cells was determined by comparing the number of cells immunopositive for β-tubulin III, GFAP and GABA to the number of bis-benzamide stained nuclei (i.e., total cell number). […]

rat cortical stem cells = experiment: Astrocyte differentiation of rat cortical stem cells (GFAP immunofluorescence); type: cell-based; details: 6 days valproate vs control
Method: as §1, with “follows: Immunofluorescent staining and visualization. Cells were plated at 20,000 cells/well in poly-L-ornithine/fibronectin (1 mg/ml) coated 24-well plates. […] For immunofluorescence, 3 different black and white pictures were taken by field of interest with a digital camera CoolSnap Fx (Princeton) corresponding to the exposure of Cy2, Cy3 and Hoechst fluorescence. […] The percentage of neurons, astrocytes and GABAergic cells was determined by comparing the number of cells immunopositive for β-tubulin III, GFAP and GABA to the number of bis-benzamide stained nuclei (i.e., total cell number). […]” for “follows:”

CCCC(CCC)C(=O)O [valproate, 2-Propylpentanoic acid]
teratogenic activity [1]: established human teratogen | effect on cell proliferation (cell density) [2]: without inhibiting cell proliferation | effect on number of β tubulin III positive neurons / neuronal differentiation [2]: increased the number of β tubulin III positive neurons compared to control and BDNF-treated cultures; also recorded: increases neuronal differentiation in human stem cell culture | neuronal differentiation ([2]; 0.5 mM valproate, BDNF 25 ng/ml, untreated control 40%): 70% | expression of GFAP (astrocyte marker) (rat cortical stem cells): dramatically inhibited

— patent publication US7132286B2, “Method for neural stem cell differentiation using valproate” (Psychiatric Genomics, Inc., priority 2001, dated 2006)
